Measured values: patent publication US11214578B2, “Urea/carbamates FAAH MAGL or dual FAAH/MAGL inhibitors and uses thereof” (Northeastern University, priority 2014, dated 2022)

Columns and labels:
ΔTM rat FAAH = target: T1, ΔTM rat FAAH (Rattus norvegicus, UniProt P97612); experiment: Fluorescent assay protocol for ΔTM rat FAAH (AAMCA substrate); format: biochemical; details: 15 min preincubation, read-out: IC50 rFAAH
T1 construct: Preparation of Transmembrane Domain-Deleted Rat FAAH (ΔTM rFAAH); made in house; host or cells: E. coli
T1 sequence (P97612 30-579 limits assumed): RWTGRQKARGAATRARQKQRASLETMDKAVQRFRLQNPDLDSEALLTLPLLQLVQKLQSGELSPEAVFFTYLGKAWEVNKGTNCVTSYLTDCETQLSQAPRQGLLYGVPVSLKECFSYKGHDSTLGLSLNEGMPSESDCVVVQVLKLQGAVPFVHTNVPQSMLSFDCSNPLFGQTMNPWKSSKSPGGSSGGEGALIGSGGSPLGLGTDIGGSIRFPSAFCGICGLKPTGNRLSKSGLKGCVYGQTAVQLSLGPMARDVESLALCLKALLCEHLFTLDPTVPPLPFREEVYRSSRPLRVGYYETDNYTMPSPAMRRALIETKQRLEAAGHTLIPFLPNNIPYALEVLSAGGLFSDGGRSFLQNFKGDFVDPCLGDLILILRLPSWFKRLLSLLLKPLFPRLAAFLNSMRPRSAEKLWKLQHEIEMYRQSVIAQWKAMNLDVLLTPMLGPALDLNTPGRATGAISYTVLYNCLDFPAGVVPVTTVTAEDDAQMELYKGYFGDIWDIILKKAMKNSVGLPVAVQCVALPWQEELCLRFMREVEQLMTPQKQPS
How it was run: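 ΔTM rat FAAH (15 μg) was pre-incubated 15 min at 25° C with compound (screening at 1, 10 and 100 μM), then reacted with the fluorigenic substrate AAMCA. Percent inhibition came from fluorescence at 3 h (linear kinetics) relative to no-inhibitor controls, in triplicate.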

Human FAAH (MBPΔTMhFAAH) = target: T2, Human FAAH (MBPΔTMhFAAH) (Homo sapiens, UniProt O00519); experiment: Fluorescent assay protocol for hFAAH; format: biochemical; details: human FAAH (MBP fusion, ΔTM), procedure as for rFAAH
T2 construct: made in house; host or cells: E. coli (pMALcE4 vector)
T2 sequence (O00519 30-579 limits assumed): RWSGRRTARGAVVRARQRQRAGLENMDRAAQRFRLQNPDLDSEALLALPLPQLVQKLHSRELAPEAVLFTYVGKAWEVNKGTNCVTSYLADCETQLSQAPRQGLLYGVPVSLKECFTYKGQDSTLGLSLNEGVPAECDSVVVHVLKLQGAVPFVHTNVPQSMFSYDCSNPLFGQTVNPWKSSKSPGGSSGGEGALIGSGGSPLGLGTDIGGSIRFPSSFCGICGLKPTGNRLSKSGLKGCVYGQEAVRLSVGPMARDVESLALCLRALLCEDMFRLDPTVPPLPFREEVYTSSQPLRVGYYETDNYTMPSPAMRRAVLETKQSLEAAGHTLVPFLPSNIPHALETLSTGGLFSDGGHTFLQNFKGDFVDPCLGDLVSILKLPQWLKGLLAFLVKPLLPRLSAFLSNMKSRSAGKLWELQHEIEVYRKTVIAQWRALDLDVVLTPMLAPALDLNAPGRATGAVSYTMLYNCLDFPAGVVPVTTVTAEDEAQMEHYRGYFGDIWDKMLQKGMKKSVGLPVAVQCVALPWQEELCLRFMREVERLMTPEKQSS
How it was run: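 MBP-fused ΔTM human FAAH from E. coli, pre-incubated 15 min at 25 °C with compound in 50 mM HEPES, 1 mM EDTA, 0.1% BSA, pH 7.4 (DMSO below 8%). Substrate AAMCA 20 μM (2×Km); fluorescence (ex 360/em 460) at 3 h gave % inhibition vs uninhibited control, triplicate, IC50 fitted.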

Rat MAGL (rMAGL) = target: T3, Rat MAGL (rMAGL) (Rattus norvegicus, UniProt Q8R431); experiment: Fluorescent assay protocol for rMAGL; format: biochemical; details: recombinant rat MAGL, procedure as for hMAGL; read-out: IC50 rMAGL
T3 construct: made in house; host or cells: E. coli
T3 sequence (Q8R431 1-303): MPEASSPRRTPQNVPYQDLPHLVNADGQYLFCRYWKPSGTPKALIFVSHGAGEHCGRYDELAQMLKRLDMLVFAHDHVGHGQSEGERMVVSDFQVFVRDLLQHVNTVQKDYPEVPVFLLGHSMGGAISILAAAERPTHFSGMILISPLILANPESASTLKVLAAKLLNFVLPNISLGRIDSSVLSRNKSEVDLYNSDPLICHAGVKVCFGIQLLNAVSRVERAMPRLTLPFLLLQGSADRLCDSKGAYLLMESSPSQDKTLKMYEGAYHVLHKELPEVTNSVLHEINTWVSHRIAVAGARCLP
How it was run: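 Rat MAGL run as for the human enzyme: AHMMCE substrate hydrolysis to fluorescent coumarin followed at 25° C. for 120 min, read every 15 min at 360/460 nm.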

Human MAGL (hMAGL) = target: T4, Human MAGL (hMAGL) (Homo sapiens, UniProt Q99685); experiment: Fluorescent assay protocol for hMAGL (AHMMCE substrate); format: biochemical; details: recombinant human MAGL, AHMMCE substrate, 15 min preincubation; read-out: IC50 hMAGL
T4 construct: hexahistidine; made in house; host or cells: E. coli
T4 sequence (Q99685 1-303): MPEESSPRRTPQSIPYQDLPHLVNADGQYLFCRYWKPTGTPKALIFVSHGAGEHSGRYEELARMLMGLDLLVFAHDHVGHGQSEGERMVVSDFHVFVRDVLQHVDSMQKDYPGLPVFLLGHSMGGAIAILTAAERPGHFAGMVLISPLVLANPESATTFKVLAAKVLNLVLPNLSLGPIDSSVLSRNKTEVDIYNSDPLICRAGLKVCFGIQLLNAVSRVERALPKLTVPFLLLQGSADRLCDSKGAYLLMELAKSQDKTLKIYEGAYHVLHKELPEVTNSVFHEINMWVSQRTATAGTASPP
How it was run: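 Hydrolysis of AHMMCE by human MAGL was monitored at 25°C for 120 min, with fluorescence at 360/460 nm recorded every 15 min and converted to 4-methylcoumarin using external standards. IC50 values were derived from triplicate wells at each inhibitor concentration.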

[1] = Blood brain barrier (BBB) permeability studies; details: brain and plasma; blood-brain distribution, in vivo; read-out: brain/plasma ratio
From the text: Novel compounds were studied for their abilities to cross the blood brain barrier based on procedures adapted from Cluny, et al (2010), British journal of pharmacology 161: 629; Rahn, et al (2011) Pharmacology biochemistry, and behavior 98: 493; Wood et al (2013) Life sciences 92: 482.

[2] = tested on: LiCl-induced anticipatory nausea in rats; experiment: Anticipatory nausea studies (LiCl-paired context, gapes); format: in vivo, rat; details: for amelioration of LiCl-induced anticipatory nausea: 20 mg/Kg; for Mean number of gapes elicited by a LiCl-paired context: 20 mg/Kg pretreatment, vehicle 22 gapes
From the text: Novel compounds were studied for their ability to ameliorate LiCl-induced anticipatory nausea in rats following the procedures described in Limebeer, C. L. et al Psychopharmacology (2014) 231:603-612. […] Mean number of gapes elicited by a LiCl-paired context in an anticipatory nausea test following pretreatment with a MAGL inhibitor compound 46 and dual FAAH/MAGL inhibitor 52 were 8 and 3 respectively, compared to animals treated with vehicle which show 22 gapes.

[3] = tested on: human prostate cancer PC-3M cells; experiment: Xenograft model of advanced prostate cancer; format: in vivo, mouse; details: nude mice, PC-3M xenograft, 20 mg/kg daily i.p. for 21 days
Description: Compounds were studied for their abilities to retard tumor growth in mouse xenograft model expressing aggressive human prostate cancer PC-3M cells. Tumors were established in immunodeficient nude mice (Taconic Farms) according to standard protocol and mice were divided in two groups. Mouse in each group was injected intraperitoneally (i.p.) with vehicle or compounds (20 mg/kg daily) for 21 days. Tumor sizes were measured with callipers every 3 days.

| IC50 (ΔTM rat FAAH) [nM] | IC50 (Human FAAH (MBPΔTMhFAAH)) [nM] | IC50 (Rat MAGL (rMAGL)) [nM] | IC50 (Human MAGL (hMAGL)) [nM] | Kp [1] | Structure (SMILES) | amelioration of LiCl-induced anticipatory nausea [2] | Mean number of gapes elicited by a LiCl-paired context [2] | reduction in tumor sizes ([3]; compared to vehicle) [%] | tumor sizes ([3]; vehicle 185 mm^3) [mm^3] |
| --- | --- | --- | --- | --- | --- | --- | --- | --- | --- |
| 10 to 100 | 10 to 100 | > 1000 | > 1000 | 0.17 | NC(=O)c1cccc(-c2cccc(NC(=O)N3CCC(c4ccccc4)CC3)c2)c1 [Example 7, N-(3′-carbamoyl-[1,1′-biphenyl]-3-yl)-4-phenylpiperidine-1-carboxamide] |  |  |  |  |
| 10 to 100 | 10 to 100 | > 1000 | > 1000 | 0.03 | C[C@H]1CN(C(=O)Nc2cccc(-c3cccc(C(N)=O)c3)c2)CCN1Cc1ccc2ccccc2n1 [Example 1, (S)—N-(3′-carbamoyl-[1,1′-biphenyl]-3-yl)-3-methyl-4-(quinolin-2-ylmethyl) piperazine-1-carboxamide] |  |  |  |  |
| 10 to 100 | 10 to 100 |  |  |  | N#Cc1cccc(OC(=O)N2CCC(C(c3ccccc3)c3ccccc3)CC2)c1 [Example 46, 3-Cyanophenyl 4-benzhydrylpiperidine-1-carboxylate] | ameliorated anticipatory nausea | 8 | 43 | 105 |
|  | 10 to 100 |  |  | 0.71 | N#Cc1cccc(OC(=O)N2CCC(Cc3ccccc3)CC2)c1 [Example 52, 3-cyanophenyl 4-benzylpiperidine-1-carboxylate] | ameliorated anticipatory nausea | 3 |  |  |
| 110 to 1000 | 110 to 1000 | > 1000 | > 1000 |  | CC1CN(C(=O)n2cnc(-c3ccccc3)c2)CCN1c1cccc(O)c1 (centres unmarked) [Example 27, (4-(3-hydroxyphenyl)-3-methylpiperazin-1-yl)(4-phenyl-1H-imidazol-1-yl)methanone] |  |  |  |  |
| 110 to 1000 | 110 to 1000 | > 1000 | > 1000 |  | O=C(N1CCN(C(c2ccc(F)cc2)c2ccc(F)cc2)CC1)n1nnnc1Cc1ccccc1 [Example 32, (5-benzyl-1H-tetrazol-1-yl)(4-(bis(4-fluorophenyl)methyl)piperazin-1-yl)methanone] |  |  |  |  |
| > 1000 | > 1000 | > 1000 | > 1000 |  | COC(=O)c1ncn(C(=O)N2CCC(OC(c3ccc(F)cc3)c3ccc(F)cc3)CC2)n1 [Example 33, (3-(Carbomethoxy)-1H-1,2,4-triazol-1-yl)(4-(bis(4-fluorophenyl)methyoxy)pipe-ridin-1 yl)methanone] |  |  |  |  |
